Laboratory results taken from the supplement of paper PMC10307832.

Columns and labels:
Assay in all cases: relative viability (nuclei count vs DMSO), 5 days (fraction); higher = more cells survive
A-427 = tested on: A-427
How it was run: (§1)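 Relative viability is defined as nuclei in treated wells over nuclei in vehicle wells. Duplicate plates were run and medians reported. Lung cancer cell lines in 1536-well plates were dosed by pin tool one day after seeding, with one drug or with a fixed anchor-drug dose plus five library-drug doses (not always all listed) in √10 steps, and nuclei were counted after 5 days.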

ABC-1 = tested on: ABC-1
How it was run: as §1

CAL-12T = tested on: CAL-12T
How it was run: as §1

H3255 = tested on: H3255
How it was run: as §1

LCLC-97TM1 = tested on: LCLC-97TM1
How it was run: as §1

LK-2 = tested on: LK-2
How it was run: as §1

NCI-H1355 = tested on: NCI-H1355
How it was run: as §1

NCI-H1395 = tested on: NCI-H1395
How it was run: as §1

NCI-H1651 = tested on: NCI-H1651
How it was run: as §1

NCI-H1666 = tested on: NCI-H1666
How it was run: as §1

NCI-H1792 = tested on: NCI-H1792
How it was run: as §1

NCI-H1915 = tested on: NCI-H1915
How it was run: as §1

NCI-H2085 = tested on: NCI-H2085
How it was run: as §1

NCI-H2087 = tested on: NCI-H2087
How it was run: as §1

NCI-H2228 = tested on: NCI-H2228
How it was run: as §1

NCI-H322M = tested on: NCI-H322M
How it was run: as §1

NCI-H358 = tested on: NCI-H358
How it was run: as §1

NCI-H661 = tested on: NCI-H661
How it was run: as §1

NCI-H838 = tested on: NCI-H838
How it was run: as §1

PC-14 = tested on: PC-14
How it was run: as §1

PC-3 [JPC-3] = tested on: PC-3 [JPC-3]
How it was run: as §1

SK-MES-1 = tested on: SK-MES-1
How it was run: as §1

UMC-11 = tested on: UMC-11
How it was run: as §1

O=c1[nH]c2ccccc2n1C1CCN(CCCC(c2ccc(F)cc2)c2ccc(F)cc2)CC1 [Pimozide] + COc1cccc2cc(-c3nc([C@H]4CC[C@H](C(=O)O)CC4)n4ncnc(N)c34)[nH]c12 [OSI-027] (partner 0.5 µM)
relative viability (A-427; first compound 0.08 µM): 0.433
relative viability (A-427; first compound 0.253 µM): 0.468
relative viability (A-427; first compound 0.8 µM): 0.414
relative viability (A-427; first compound 2.53 µM): 0.419
relative viability (A-427; first compound 8 µM): 0.406
relative viability (ABC-1; first compound 0.08 µM): 0.514
relative viability (ABC-1; first compound 0.253 µM): 0.496
relative viability (ABC-1; first compound 0.8 µM): 0.422
relative viability (ABC-1; first compound 2.53 µM): 0.351
relative viability (ABC-1; first compound 8 µM): 0.354
relative viability (CAL-12T; first compound 0.08 µM): 0.756
relative viability (CAL-12T; first compound 0.253 µM): 0.706
relative viability (CAL-12T; first compound 0.8 µM): 0.673
relative viability (CAL-12T; first compound 2.53 µM): 0.41
relative viability (CAL-12T; first compound 8 µM): 0.561
relative viability (H3255; first compound 0.253 µM): 0.514
relative viability (H3255; first compound 0.8 µM): 0.563
relative viability (H3255; first compound 2.53 µM): 0.6
relative viability (H3255; first compound 8 µM): 0.584
relative viability (LCLC-97TM1; first compound 0.08 µM): 0.488
relative viability (LCLC-97TM1; first compound 0.253 µM): 0.363
relative viability (LCLC-97TM1; first compound 0.8 µM): 0.447
relative viability (LCLC-97TM1; first compound 2.53 µM): 0.422
relative viability (LCLC-97TM1; first compound 8 µM): 0.278
relative viability (LK-2; first compound 0.08 µM): 0.183
relative viability (LK-2; first compound 0.253 µM): 0.249
relative viability (LK-2; first compound 0.8 µM): 0.179
relative viability (LK-2; first compound 2.53 µM): 0.198
relative viability (LK-2; first compound 8 µM): 0.167
relative viability (NCI-H1355; first compound 0.08 µM): 0.326
relative viability (NCI-H1355; first compound 0.253 µM): 0.398
relative viability (NCI-H1355; first compound 0.8 µM): 0.305
relative viability (NCI-H1355; first compound 2.53 µM): 0.357
relative viability (NCI-H1355; first compound 8 µM): 0.34
relative viability (NCI-H1395; first compound 0.08 µM): 0.642
relative viability (NCI-H1395; first compound 0.253 µM): 0.611
relative viability (NCI-H1395; first compound 0.8 µM): 0.565
relative viability (NCI-H1395; first compound 2.53 µM): 0.629
relative viability (NCI-H1395; first compound 8 µM): 0.557
relative viability (NCI-H1651; first compound 0.08 µM): 0.657
relative viability (NCI-H1651; first compound 0.253 µM): 0.7
relative viability (NCI-H1651; first compound 0.8 µM): 0.633
relative viability (NCI-H1651; first compound 2.53 µM): 0.757
relative viability (NCI-H1651; first compound 8 µM): 0.596
relative viability (NCI-H1666; first compound 0.08 µM): 0.874
relative viability (NCI-H1666; first compound 0.253 µM): 0.832
relative viability (NCI-H1666; first compound 0.8 µM): 0.772
relative viability (NCI-H1666; first compound 2.53 µM): 0.699
relative viability (NCI-H1666; first compound 8 µM): 0.808
relative viability (NCI-H1792; first compound 0.08 µM): 0.758
relative viability (NCI-H1792; first compound 0.253 µM): 0.691
relative viability (NCI-H1792; first compound 0.8 µM): 0.666
relative viability (NCI-H1792; first compound 2.53 µM): 0.663
relative viability (NCI-H1792; first compound 8 µM): 0.736
relative viability (NCI-H1915; first compound 0.08 µM): 0.6
relative viability (NCI-H1915; first compound 0.253 µM): 0.575
relative viability (NCI-H1915; first compound 0.8 µM): 0.384
relative viability (NCI-H1915; first compound 2.53 µM): 0.581
relative viability (NCI-H1915; first compound 8 µM): 0.478
relative viability (NCI-H2085; first compound 0.08 µM): 0.59
relative viability (NCI-H2085; first compound 0.253 µM): 0.736
relative viability (NCI-H2085; first compound 0.8 µM): 0.701
relative viability (NCI-H2085; first compound 2.53 µM): 0.709
relative viability (NCI-H2085; first compound 8 µM): 0.61
relative viability (NCI-H2087; first compound 0.08 µM): 0.765
relative viability (NCI-H2087; first compound 0.253 µM): 0.55
relative viability (NCI-H2087; first compound 2.53 µM): 0.427
relative viability (NCI-H2087; first compound 8 µM): 0.377
relative viability (NCI-H2228; first compound 0.08 µM): 0.537
relative viability (NCI-H2228; first compound 0.253 µM): 0.644
relative viability (NCI-H2228; first compound 0.8 µM): 0.587
relative viability (NCI-H2228; first compound 2.53 µM): 0.451
relative viability (NCI-H2228; first compound 8 µM): 0.221
relative viability (NCI-H322M; first compound 0.253 µM): 0.525
relative viability (NCI-H322M; first compound 0.8 µM): 0.508
relative viability (NCI-H322M; first compound 2.53 µM): 0.545
relative viability (NCI-H322M; first compound 8 µM): 0.572
relative viability (NCI-H358; first compound 0.08 µM): 0.829
relative viability (NCI-H358; first compound 0.253 µM): 0.74
relative viability (NCI-H358; first compound 0.8 µM): 0.697
relative viability (NCI-H358; first compound 2.53 µM): 0.646
relative viability (NCI-H358; first compound 8 µM): 0.678
relative viability (NCI-H661; first compound 0.08 µM): 0.691
relative viability (NCI-H661; first compound 0.253 µM): 0.647
relative viability (NCI-H661; first compound 0.8 µM): 0.624
relative viability (NCI-H661; first compound 2.53 µM): 0.533
relative viability (NCI-H661; first compound 8 µM): 0.538
relative viability (NCI-H838; first compound 0.08 µM): 0.409
relative viability (NCI-H838; first compound 0.253 µM): 0.388
relative viability (NCI-H838; first compound 0.8 µM): 0.33
relative viability (NCI-H838; first compound 2.53 µM): 0.4
relative viability (NCI-H838; first compound 8 µM): 0.353
relative viability (PC-14; first compound 0.08 µM): 0.182
relative viability (PC-14; first compound 0.253 µM): 0.743
relative viability (PC-14; first compound 0.8 µM): 0.764
relative viability (PC-14; first compound 2.53 µM): 0.624
relative viability (PC-14; first compound 8 µM): 0.621
relative viability (PC-3 [JPC-3]; first compound 0.08 µM): 0.338
relative viability (PC-3 [JPC-3]; first compound 0.253 µM): 0.739
relative viability (PC-3 [JPC-3]; first compound 0.8 µM): 0.688
relative viability (PC-3 [JPC-3]; first compound 2.53 µM): 0.746
relative viability (PC-3 [JPC-3]; first compound 8 µM): 0.685
relative viability (SK-MES-1; first compound 0.08 µM): 0.61
relative viability (SK-MES-1; first compound 0.253 µM): 0.572
relative viability (SK-MES-1; first compound 0.8 µM): 0.546
relative viability (SK-MES-1; first compound 2.53 µM): 0.586
relative viability (SK-MES-1; first compound 8 µM): 0.463
relative viability (UMC-11; first compound 0.08 µM): 0.515
relative viability (UMC-11; first compound 0.253 µM): 0.421
relative viability (UMC-11; first compound 0.8 µM): 0.51
relative viability (UMC-11; first compound 2.53 µM): 0.357
relative viability (UMC-11; first compound 8 µM): 0.312
